Experimental data from patent publication US20200392158A1, “INHIBITORS OF LEUCINE RICH REPEAT KINASE 2” (GLAXOSMITHKLINE INTELLECTUAL PROPERTY DEVELOPMENT LIMITED, priority 2017, published 2020).
Where a name gives a salt, the structure may show the parent alone.

molecular target: T1, LRRK2 kinase in SH-SY5Y cells over-expressing recombinant full length LRRK2 (Homo sapiens, UniProt Q5S007); experiment: Recombinant cellular LRRK2 AlphaScreen assay (LRRK2 Ser935 phosphorylation); assay type: cell-based; conditions: 60 min
T1 construct: A BacMam virus expressing full length recombinant LRRK2 was purchased from Invitrogen; host or cells: SH-SY5Y human neuroblastoma cells transduced with BacMam LRRK2 virus
Summary of the method: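 Read-out is AlphaScreen of LRRK2 pSer935 over total LRRK2 in lysates of SH-SY5Y cells over-expressing full-length LRRK2 via BacMam (24 h transduction). Cells were exposed 60 min at 37 °C to an 11-point 1-in-4 dilution series starting at 10 uM; sigmoidal fit.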

T1 sequence (Q5S007 whole entry): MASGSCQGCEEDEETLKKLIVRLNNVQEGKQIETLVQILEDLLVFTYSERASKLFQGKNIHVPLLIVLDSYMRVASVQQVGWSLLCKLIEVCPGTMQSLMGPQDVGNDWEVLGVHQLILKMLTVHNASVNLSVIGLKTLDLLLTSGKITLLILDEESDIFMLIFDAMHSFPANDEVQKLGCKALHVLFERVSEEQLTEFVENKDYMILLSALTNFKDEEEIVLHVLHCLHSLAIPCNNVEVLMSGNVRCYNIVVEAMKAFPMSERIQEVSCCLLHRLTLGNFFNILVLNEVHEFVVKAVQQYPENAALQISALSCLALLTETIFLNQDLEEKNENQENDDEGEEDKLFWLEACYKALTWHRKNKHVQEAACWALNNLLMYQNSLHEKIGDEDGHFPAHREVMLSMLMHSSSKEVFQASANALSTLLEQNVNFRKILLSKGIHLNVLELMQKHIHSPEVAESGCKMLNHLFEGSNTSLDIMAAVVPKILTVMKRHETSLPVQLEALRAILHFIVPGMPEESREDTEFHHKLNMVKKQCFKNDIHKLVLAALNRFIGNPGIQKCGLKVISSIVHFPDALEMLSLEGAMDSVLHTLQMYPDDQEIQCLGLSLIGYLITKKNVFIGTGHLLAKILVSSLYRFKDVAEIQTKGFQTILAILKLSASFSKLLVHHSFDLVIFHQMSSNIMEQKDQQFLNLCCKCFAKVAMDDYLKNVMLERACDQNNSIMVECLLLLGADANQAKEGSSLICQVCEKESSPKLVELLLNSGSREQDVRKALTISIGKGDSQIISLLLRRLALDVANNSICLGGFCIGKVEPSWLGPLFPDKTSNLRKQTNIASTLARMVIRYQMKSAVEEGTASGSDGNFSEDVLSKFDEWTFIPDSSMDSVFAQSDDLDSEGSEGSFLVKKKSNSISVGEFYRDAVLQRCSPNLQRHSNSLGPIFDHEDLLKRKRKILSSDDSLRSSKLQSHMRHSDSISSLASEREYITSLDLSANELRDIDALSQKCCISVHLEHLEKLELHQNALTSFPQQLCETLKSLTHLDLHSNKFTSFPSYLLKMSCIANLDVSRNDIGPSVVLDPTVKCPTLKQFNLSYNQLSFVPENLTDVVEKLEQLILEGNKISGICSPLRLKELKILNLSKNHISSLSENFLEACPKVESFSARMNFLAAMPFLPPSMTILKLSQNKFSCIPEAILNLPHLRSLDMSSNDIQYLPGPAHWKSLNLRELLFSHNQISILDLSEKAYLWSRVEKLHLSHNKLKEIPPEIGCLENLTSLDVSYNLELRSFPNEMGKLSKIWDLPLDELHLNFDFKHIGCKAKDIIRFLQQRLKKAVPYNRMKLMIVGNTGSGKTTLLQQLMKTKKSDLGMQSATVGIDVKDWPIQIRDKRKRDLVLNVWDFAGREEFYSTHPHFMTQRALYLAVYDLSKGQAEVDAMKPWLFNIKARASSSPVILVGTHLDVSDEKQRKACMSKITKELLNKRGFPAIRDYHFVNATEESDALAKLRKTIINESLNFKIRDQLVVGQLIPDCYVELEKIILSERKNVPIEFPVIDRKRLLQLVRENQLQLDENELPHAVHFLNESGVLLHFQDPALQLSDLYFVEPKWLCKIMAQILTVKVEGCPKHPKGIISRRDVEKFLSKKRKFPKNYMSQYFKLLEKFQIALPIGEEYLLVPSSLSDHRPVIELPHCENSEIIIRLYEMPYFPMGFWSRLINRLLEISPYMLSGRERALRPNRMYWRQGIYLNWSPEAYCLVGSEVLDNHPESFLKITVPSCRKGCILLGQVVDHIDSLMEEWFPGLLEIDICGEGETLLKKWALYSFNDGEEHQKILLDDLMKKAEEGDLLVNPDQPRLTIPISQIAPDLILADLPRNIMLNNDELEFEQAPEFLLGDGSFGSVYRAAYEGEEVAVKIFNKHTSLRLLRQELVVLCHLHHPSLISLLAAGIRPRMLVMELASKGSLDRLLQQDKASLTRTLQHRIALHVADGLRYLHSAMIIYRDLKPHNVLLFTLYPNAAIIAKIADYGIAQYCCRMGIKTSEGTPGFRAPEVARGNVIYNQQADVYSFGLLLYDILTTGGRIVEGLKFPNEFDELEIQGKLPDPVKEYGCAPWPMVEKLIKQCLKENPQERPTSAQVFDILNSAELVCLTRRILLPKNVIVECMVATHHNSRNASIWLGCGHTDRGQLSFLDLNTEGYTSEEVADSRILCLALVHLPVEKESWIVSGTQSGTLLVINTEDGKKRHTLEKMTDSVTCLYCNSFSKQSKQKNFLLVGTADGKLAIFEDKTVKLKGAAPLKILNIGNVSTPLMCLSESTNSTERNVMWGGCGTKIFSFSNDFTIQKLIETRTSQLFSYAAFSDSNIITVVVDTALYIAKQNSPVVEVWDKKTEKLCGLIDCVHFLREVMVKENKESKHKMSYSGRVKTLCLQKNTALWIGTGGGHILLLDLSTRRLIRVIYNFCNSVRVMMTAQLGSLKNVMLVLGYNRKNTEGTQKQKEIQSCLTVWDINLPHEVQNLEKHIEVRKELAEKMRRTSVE

IC50 [nM] | SMILES
≤ 100 | Cc1c2c(nn1C1CCCOC1)OCCCNc1nc(ncc1Br)N2 (single isomer, unassigned) [E288, 14-Bromo-4-methyl-5-(oxan-3-yl)-8-oxa-2,5,6, 12,16,17-hexaazatricyclo[11.3.1.0^3,7]heptadeca-1(16),3,6,13(17), 14-pentaene]
≤ 100 | COC1CCC(n2nc3c(c2C)Nc2ncc(Cl)c(n2)NCC(OC)CO3)CC1 (single isomer, unassigned) [E239, 14-Chloro-10-methoxy-5-(4-methoxycyclohexyl)-4-methyl-8-oxa-2,5,6,12,16,17-hexaazatricyclo [11.3.1. 0^3,7]heptadeca-1(16),3,6,13(17),14-pentaene]
≤ 100 | COC1CNc2nc(ncc2Cl)Nc2c(nn(C3CCOCC3)c2Cl)OC1 (single isomer, unassigned) [E341, 4,14-Dichloro-10-methoxy-5-(oxan-4-yl)-8-oxa-2,5,6,12,16,17-hexaazatricyclo[11.3.1.0^3,7]heptadeca-1(16),3,6,13(17),14-pentaene]
≤ 100 | Cc1c2c(nn1C1CCCOC1)OCCCNc1nc(ncc1C(F)(F)F)N2 (stereo not shown) [E131, 4-Methyl-5-(oxan-3-yl)-14-(trifluoromethyl)-8-oxa-2,5,6,12,16, 17-hexaazatricyclo[11.3.1.0^3,7]heptadeca-1(16),3,6,13(17),14-pentaene]
≤ 100 | Cc1c2c(nn1C1CCC(F)(F)CC1)OCC[C@@H](C)Nc1nc(ncc1Cl)N2 [E373, (11R)-14-Chloro-5-(4,4-difluorocyclohexyl)-4,11-dimethyl-8-oxa-2,5,6,12,16,17-hexaazatricyclo[11.3.1.0^3,7]heptadeca-1(16),3,6,13 (17),14-pentaene]
≤ 100 | Cc1c2c(nn1C1CCOC(C)C1)OCCCNc1nc(ncc1Cl)N2 (single isomer, unassigned) [E202, 14-Chloro-4-methyl-5-(2-methyloxan-4-yl)-8-oxa-2,5,6,12,16,17-hexaazatricyclo[11.3.1.0^3,7]heptadeca-1(16),3,6,13(17),14-pentaene]
≤ 100 | Cc1c2c(nn1C1CCC(N3CCC(F)C3)CC1)OCCCNc1nc(ncc1Cl)N2 (single isomer, unassigned) [E152, 14-Chloro-5-[4-(3-fluoropyrrolidin-1-yl)cyclohexyl]-4-methyl-8-oxa-2,5,6,12,16,17-hexaazatricyclo[11.3.1. 0^3,7]heptadeca-1(16),3,6,13(17),14-pentaene]
≤ 100 | Cc1c2c(nn1C1CCOCC1)OCCC(C)Nc1cc(ncc1Cl)N2 (single isomer, unassigned) [E345, 14-Chloro-4,11-dimethyl-5-(oxan-4-yl)-8-oxa-2,5,6,12,16-pentaazatricyclo[11.3.1.0^3,7]heptadeca-1(16),3,6,13 (17),14-pentaene]
≤ 100 | Cc1[nH]nc2c1Nc1ncc(Cl)c(n1)NCC(C)CO2 (stereo not shown) [E431, 14-Chloro-4,10-dimethyl-8-oxa-2,5,6,12,16,17-hexaazatricyclo[11.3.1.0^3,7]heptadeca-1(16),3,6,13(17),14-pentaene]
≤ 100 | COC1CCCC(n2nc3c(c2C)Nc2ncc(Cl)c(n2)NC(C)CCO3)C1 (single isomer, unassigned) [E170, 14-Chloro-5-(3-methoxycyclohexyl)-4,11-dimethyl-8-oxa-2,5,6,12,16,17-hexaazatricyclo[11.3.1.0^3,7] heptadeca-1(16),3,6,13(17),14-pentaene]
≤ 100 | Cc1c2c(nn1C1CC3CCC(C1)O3)OCCC(C)Nc1nc(ncc1Cl)N2 (single isomer, unassigned) [E249, 14-Chloro-4,11-dimethyl-5-{8-oxabicyclo[3.2.1]octan-3-yl}-8-oxa-2,5,6,12,16,17-hexaazatricyclo[11.3.1.0^3,7] heptadeca-1(16),3,6,13(17),14-pentaene]
≤ 100 | COC1CCC(n2nc3c(c2C)Nc2ncc(Cl)c(n2)NCCCO3)CC1 (single isomer, unassigned) [E237, 14-Chloro-5-(4-methoxycyclohexyl)-4-methyl-8-oxa-2,5,6,12,16,17-hexaazatricyclo[11.3.1.0^3,7]heptadeca-1(16), 3,6,13(17),14-pentaene]
≤ 100 | Cc1c2c(nn1C1CCC(N3C[C@@H]4C[C@H]3CO4)CC1)OCCCNc1nc(ncc1Cl)N2 (single isomer, unassigned) [E50]
≤ 100 | Cc1c2c(nn1C1CCC(N3CCC(F)C3)CC1)OCCC(C)Nc1nc(ncc1Cl)N2 (single isomer, unassigned) [E158, 14-Chloro-5-[4-(3-fluoropyrrolidin-1-yl)cyclohexyl]-4,11-dimethyl-8-oxa-2,5,6,12,16,17-hexaazatricyclo [11.3.1.0^3,7]heptadeca-1(16),3,6,13(17),14-pentaene]
≤ 100 | N#Cc1cnc2nc1NCCCOc1nn(C3CCOCC3)c(Cl)c1N2 [E15, 4-Chloro-5-(oxan-4-yl)-8-oxa-2,5,6,12,16,17-hexaazatricyclo[11.3.1.0^3,7]heptadeca-1(16),3,6,13(17),14-pentaene-14-carbonitrile]
≤ 100 | COC1CNc2nc(ncc2C(F)(F)F)Nc2c(nn(C3CCOCC3)c2C)OC1 (stereo not shown) [E119, 10-Methoxy-4-methyl-5-(oxan-4-yl)-14-(trifluoromethyl)-8-oxa-2,5,6,12,16,17-hexaazatricyclo[11.3.1.0^3,7]heptadeca-1(16),3,6, 13(17),14-pentaene]

IC50 [nM] | SMILES
≤ 100 | COC1CNc2nc(ncc2Cl)Nc2c(nn(C3CCOC(C)C3)c2C)OC1 (single isomer, unassigned) [E206, 14-Chloro-10-methoxy-4-methyl-5-(2-methyloxan-4-yl)-8-oxa-2,5,6,12,16,17-hexaazatricyclo [11.3.1.0^3,7] heptadeca-1(16),3,6,13(17),14-pentaene]
≤ 100 | N#Cc1cnc2nc1NCCCOc1nn(C3CCOCC3(F)F)c(Cl)c1N2 (stereo not shown) [E438, 4-Chloro-5-(3,3-difluorooxan-4-yl)-8-oxa-2,5,6,12,16,17-hexaazatricyclo[11.3.1.0^3,7]heptadeca-1(16),3,6,13(17),14-pentaene-14-carbonitrile]
≤ 100 | C[C@@H]1CCOc2nn(C3CN(C4COCCC4(F)F)C3)c(Cl)c2Nc2ncc(Cl)c(n2)N1 (stereo partly drawn) [E440, (11R)-4,14-Dichloro-5-[1-(4,4-difluorooxan-3-yl)azetidin-3-yl]-11-methyl-8-oxa-2,5,6,12,16,17-hexaazatricyclo[11.3.1.0^3,7]heptadeca-1(16),3,6,13(17),14-pentaene, TFA salt]
≤ 100 | Cc1c2c(nn1C1CCOCC1C)OCCCNc1nc(ncc1Cl)N2 (single isomer, unassigned) [E412]
≤ 100 | Cc1c2c(nn1C1CCOC(C)C1)OCCC(C)Nc1nc(ncc1Cl)N2 (single isomer, unassigned) [E80, 14-chloro-4,11-dimethyl-5-(2-methyloxan-4-yl)-8-oxa-2,5,6,12, 16,17-hexaazatricyclo[11.3.1.0^3,7]heptadeca-1(16),3,6,13(17),14-pentaene]
≤ 100 | Cc1c2c(nn1C1CCC(C)CC1)OCCCNc1nc(ncc1Cl)N2 (single isomer, unassigned) [E257, 14-Chloro-4-methyl-5-(4-methylcyclohexyl)-8-oxa-2,5,6,12,16,17-hexaazatricyclo[11.3.1.0^3,7]heptadeca-1(16),3,6,13 (17),14-pentaene]
≤ 100 | Cc1c2c(nn1C1CCOC1)OCCCNc1nc(ncc1C(F)(F)F)N2 (stereo not shown) [E126, 4-Methyl-5-(oxolan-3-yl)-14-(trifluoromethyl)-8-oxa-2,5,6,12,16, 17-hexaazatricyclo[11.3.1.0^3,7]heptadeca-1(16),3,6,13(17),14-pentaene]
≤ 100 | COCCN1CCC(n2nc3c(c2C)Nc2ncc(Cl)c(n2)N[C@H](C)CCO3)C(F)C1 (single isomer, unassigned) [E100]
≤ 100 | Cc1c2c(nn1C1CCC(N3CCOCC3)CC1)OCCC(C)Nc1nc(ncc1Cl)N2 (single isomer, unassigned) [E150]
≤ 100 | Cc1c2c(nn1C1CCOC(CO)C1)OCC[C@@H](C)Nc1nc(ncc1Cl)N2 (stereo partly drawn) [E331, {4-[(11R)-14-Chloro-4,11-dimethyl-8-oxa-2,5,6,12,16,17-hexaazatricyclo[11.3.1.0^3,7]heptadeca-1(16),3,6,13(17),14-pentaen-5-yl]oxan-2-yl}methanol]
≤ 100 | Cc1c2c(nn1C(C)(C)C(N)=O)OCCC(C)Nc1nc(ncc1Cl)N2 (single isomer, unassigned) [E42, 2-{14-chloro-4,11-dimethyl-8-oxa-2,5,6,12,16,17-hexaazatricyclo [11.3.1.0^3,7]heptadeca-1(16),3,6,13(17),14-pentaen-5-yl}-2-methylpropanamide]
≤ 100 | Cc1c2c(nn1C1CCOCC1)OCC(F)CNc1nc(ncc1Cl)N2 (single isomer, unassigned) [E17, 14-Chloro-10-fluoro-4-methyl-5-(oxan-4-yl)-8-oxa-2,5,6,12,16,17-hexaazatricyclo [11.3.1.0^3,7]heptadeca-1(16),3,6,13(17),14-pentaene]
≤ 100 | Cc1c2c(nn1CCN1CCOCC1)OCCCNc1nc(ncc1Cl)N2 [E220, 14-Chloro-4-methyl-5-[2-(morpholin-4-yl)ethyl]-8-oxa-2,5,6,12, 16,17-hexaazatricyclo[11.3.1.0^3,7]heptadeca-1(16),3,6,13(17),14-pentaene]
≤ 100 | Cc1c2c(nn1C1CCCOC1)OCCCNc1nc(ncc1Cl)N2 (stereo not shown) [E8, 14-Chloro-4-methyl-5-(oxan-3-yl)-8-oxa-2,5,6,12,16,17-hexaazatricyclo[11.3.1.0^3,7]heptadeca-1(16),3,6,13(17),14-pentaene]
≤ 100 | Cc1c2c(nn1C1CCC(N3CCOCC3)CC1)OCCCNc1nc(ncc1Cl)N2 (single isomer, unassigned) [E380, 14-Chloro-4-methyl-5-[4-(morpholin-4-yl)cyclohexyl]-8-oxa-2,5,6,12,16,17-hexaazatricyclo [11.3.1.0^3,7]heptadeca-1(16),3,6,13(17),14-pentaene]
